Measured values from patent US11685719B2, “Pyridinone MK2 inhibitors and uses thereof” (Xinthera, Inc., priority 2021, dated 2023).
Like-named read-outs stand apart in the source and are kept apart here.

How the values were obtained:
[1] = biological target: p38a/MK2 (Homo sapiens (Human), UniProt P49137+Q16539); experiment: biochemical; conditions: 10-point 1:3 dilution, 10 μM ATP, 2 h incubation
Protocol: (§1) Expression vectors of the recombinant MK2 and PRAK kinases were constructed by cloning of the codon optimized gene sequences of MK2 (Uniprot ID P49137, amino acid fragment F46-H400), or PRAK (Uniprot ID Q81W41, amino acid fragment M1-Q471) into pGEX-4T1 (GE) for over expression of these kinases with N-terminal GST-tag. Protein expression was carried out in E. coli BL21 by growing the hosts in TB medium, induction of protein expression with 0.5 mM IPTG at approximate 0.8 OD600, and incubation of the cultures at 18° C. for 14-20 hours afterwards. The harvested cells were resuspended in […] of Lysis buffer (50 mM Tris-HCl, pH 8.0, 500 mM NaCl, 1 mM DTT, 5% glycerol, and 1 mM PMSF) per gram of wet cell mass and homogenized at 4° C. in a microfluidizer (ATS, Suzhou, China) at 14,000 psi pressure, 3 passes. The cell lysates were clarified by centrifugation and the supernatants containing the GST-fusion proteins were purified by affinity chromatography using GSH-Sepharose (GE) gravity flow columns pre-equilibrated in Buffer A (50 mM Tris-HCl, pH 8.0, 500 mM NaCl, 1 mM DTT, and 5% glycerol). After thorough washing of the columns with Buffer A, the bound GST-proteins were eluted by Buffer B (50 mM Tris, pH 8.0, 500 mM NaCl, 1 mM DTT, 5% glycerol, 10 mM glutathione), followed by size-exclusion purification on Superdex 200 column equilibrated in Buffer A. The purified proteins were concentrated to approximately 1 mg/ml and stored at −80° C.
(§2) This study evaluates the inhibitory potency of invention compound on p38/MK2 pathway vs p38/PRAK pathway. More specially the compound concentration (IC50) was determined that inhibited half of the maximal activation of MK2 or PRAK by p38. MK2 activation study was set up without or with a serial of 10-point 1:3 dilution of invention compound at top dose of 1 or 10 μM, and PRAK activation study was set up without or with a serial of 10-point 1:3 dilution of invention compound at top dose of 300 μM. The MIK2 and PRAK activity were determined by the phosphorylation level of HSP27 peptide conjugated with FITC.

[2] = biological target: p38a/PRAK (Homo sapiens (Human), UniProt Q16539); experiment: biochemical; conditions: 10-point 1:3 dilution, top dose 300 μM; 10 μM ATP, 2 h incubation; read-out: p38a/PRAK Enzyme pIC50 (converted)
Protocol: as §1, §2

[3] = top dose 1 μM, read-out: p38a/MK2 (1 μM) Enzyme pIC50 (converted)
[4] = top dose 10 μM, read-out: p38a/MK2 (10 μM) Enzyme pIC50 (converted)

Chain of p38a/PRAK (Q16539 whole entry): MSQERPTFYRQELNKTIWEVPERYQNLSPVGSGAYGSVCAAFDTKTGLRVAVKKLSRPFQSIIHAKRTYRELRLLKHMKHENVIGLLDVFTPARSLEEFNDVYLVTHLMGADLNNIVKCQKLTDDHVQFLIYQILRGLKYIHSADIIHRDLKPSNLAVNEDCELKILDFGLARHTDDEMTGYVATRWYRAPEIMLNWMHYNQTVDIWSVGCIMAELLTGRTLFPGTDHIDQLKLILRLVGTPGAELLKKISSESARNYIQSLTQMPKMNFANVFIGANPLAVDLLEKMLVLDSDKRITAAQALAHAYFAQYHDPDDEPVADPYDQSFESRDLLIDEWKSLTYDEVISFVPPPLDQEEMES
Chain of p38a/MK2 (Q16539 whole entry, the tested form may be a part): as the sequence (Q16539 whole entry) above
Chain of p38a/MK2 (P49137 46-400): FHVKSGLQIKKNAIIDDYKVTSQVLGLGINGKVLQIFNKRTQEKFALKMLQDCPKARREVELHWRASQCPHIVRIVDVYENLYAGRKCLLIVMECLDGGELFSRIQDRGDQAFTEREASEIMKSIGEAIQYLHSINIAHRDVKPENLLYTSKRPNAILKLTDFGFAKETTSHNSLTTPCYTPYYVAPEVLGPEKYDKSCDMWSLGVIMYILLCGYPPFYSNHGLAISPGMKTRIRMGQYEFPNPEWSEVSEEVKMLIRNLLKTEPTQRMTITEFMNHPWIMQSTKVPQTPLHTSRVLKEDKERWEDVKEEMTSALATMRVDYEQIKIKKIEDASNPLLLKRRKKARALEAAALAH

Row | Compound | IC50 [1, 3] | IC50 [2] | IC50 [1, 4]
1 | CCOC(=O)C(C)(C)n1nc(-c2cc(-n3c(C)cc(OCc4ncc(F)cc4F)c(Cl)c3=O)c(C)cn2)ccc1=O (atropisomer, axis not shown) [Example 6, ethyl 2-(3-{3-chloro-4-[(3,5-difluoropyridin-2-yl)methoxy]-5′,6-dimethyl-2-oxo-[1,4′-bipyridin]-2′-yl}-6-oxopyridazin-1-yl)-2-methylpropanoate] | 20 nM | 6310 nM | –
2 | Cc1cnc(-n2cccc(C(C)(C)O)c2=O)cc1-n1c(C)cc(OCc2ncc(F)cc2F)c(Cl)c1=O (single isomer, unassigned) [Example 1A, rel-3-chloro-4-[(3,5-difluoropyridin-2-yl)methoxy]-2′-[3-(2-hydroxypropan-2-yl)-2-oxopyridin-1-yl]-5′,6-dimethyl-[1,4′-bipyridin]-2-one] | 2 nM | 3160 nM | 3.16 nM
3 | Cc1cnc(-n2cccc(C(C)(C)O)c2=O)cc1-n1c(C)cc(OCc2ncc(F)cc2F)c(Cl)c1=O (single isomer, unassigned) [Example 1B, rel-3-chloro-4-[(3,5-difluoropyridin-2-yl)methoxy]-2′-[3-(2-hydroxypropan-2-yl)-2-oxopyridin-1-yl]-5′,6-dimethyl-[1,4′-bipyridin]-2-one] | – | > 316000 nM | 398 nM
4 | Cc1ccc(-n2cccc(C(C)(C)O)c2=O)cc1-n1c(C)cc(OCc2ncc(F)cc2F)c(Cl)c1=O (single isomer, unassigned) [Example 2A, rel-3-chloro-4-[(3,5-difluoropyridin-2-yl)methoxy]-1-{5-[3-(2-hydroxypropan-2-yl)-2-oxopyridin-1-yl]-2-methylphenyl}-6-methylpyridin-2-one] | 3.98 nM | 1260 nM | –
5 | Cc1ccc(-n2cccc(C(C)(C)O)c2=O)cc1-n1c(C)cc(OCc2ncc(F)cc2F)c(Cl)c1=O (single isomer, unassigned) [Example 2B, rel-3-chloro-4-[(3,5-difluoropyridin-2-yl)methoxy]-1-{5-[3-(2-hydroxypropan-2-yl)-2-oxopyridin-1-yl]-2-methylphenyl}-6-methylpyridin-2-one] | > 1000 nM | > 316000 nM | –
6 | COCc1cc(OCc2ncc(F)cc2F)c(Cl)c(=O)n1-c1cc(-n2cccc(C(C)(C)O)c2=O)ncc1C (single isomer, unassigned) [Example 3A, rel-3-chloro-4-[(3,5-difluoropyridin-2-yl)methoxy]-2′-[3-(2-hydroxypropan-2-yl)-2-oxopyridin-1-yl]-6-(methoxymethyl)-5′-methyl-[1,4′-bipyridin]-2-one] | 6.31 nM | 5010 nM | –
7 | COCc1cc(OCc2ncc(F)cc2F)c(Cl)c(=O)n1-c1cc(-n2cccc(C(C)(C)O)c2=O)ncc1C (single isomer, unassigned) [Example 3B, rel-3-chloro-4-[(3,5-difluoropyridin-2-yl)methoxy]-2′-[3-(2-hydroxypropan-2-yl)-2-oxopyridin-1-yl]-6-(methoxymethyl)-5′-methyl-[1,4′-bipyridin]-2-one] | > 1000 nM | > 316000 nM | –
8 | Cc1cnc(-n2cccc(C(C)(C)O)c2=O)cc1-n1c(C)cc(OCc2ncc(Cl)cc2F)c(Cl)c1=O (single isomer, unassigned) [Example 4A, rel-3-chloro-4-[(5-chloro-3-fluoropyridin-2-yl)methoxy]-2′-[3-(2-hydroxypropan-2-yl)-2-oxopyridin-1-yl]-5′,6-dimethyl-[1,4′-bipyridin]-2-one] | 2 nM | 5010 nM | –
9 | Cc1cnc(-n2cccc(C(C)(C)O)c2=O)cc1-n1c(C)cc(OCc2ncc(Cl)cc2F)c(Cl)c1=O (single isomer, unassigned) [Example 4B, rel-3-chloro-4-[(5-chloro-3-fluoropyridin-2-yl)methoxy]-2′-[3-(2-hydroxypropan-2-yl)-2-oxopyridin-1-yl]-5′,6-dimethyl-[1,4′-bipyridin]-2-one] | > 1000 nM | > 316000 nM | –
10 | Cc1cnc(-n2ccnc(C(C)(C)O)c2=O)cc1-n1c(C)cc(OCc2ncc(F)cc2F)c(Cl)c1=O (single isomer, unassigned) [Example 5A, rel-3-chloro-4-[(3,5-difluoropyridin-2-yl)methoxy]-2′-[3-(2-hydroxypropan-2-yl)-2-oxopyrazin-1-yl]-5′,6-dimethyl-[1,4′-bipyridin]-2-one] | 2.51 nM | 2510 nM | –
11 | Cc1cnc(-n2ccnc(C(C)(C)O)c2=O)cc1-n1c(C)cc(OCc2ncc(F)cc2F)c(Cl)c1=O (single isomer, unassigned) [Example 5B, rel-3-chloro-4-[(3,5-difluoropyridin-2-yl)methoxy]-2′-[3-(2-hydroxypropan-2-yl)-2-oxopyrazin-1-yl]-5′,6-dimethyl-[1,4′-bipyridin]-2-one] | > 1000 nM | > 316000 nM | –
12 | Cc1cnc(-n2cccc(C(C)(C)O)c2=O)cc1-n1c(C)cc(OCc2ncc(F)cc2Cl)c(Cl)c1=O (single isomer, unassigned) [Example 7A, rel-3-chloro-4-[(3-chloro-5-fluoropyridin-2-yl)methoxy]-2′-[3-(2-hydroxypropan-2-yl)-2-oxopyridin-1-yl]-5′,6-dimethyl-[1,4′-bipyridin]-2-one] | 1 nM | 7940 nM | –
13 | Cc1cnc(-n2cccc(C(C)(C)O)c2=O)cc1-n1c(C)cc(OCc2ncc(F)cc2Cl)c(Cl)c1=O (single isomer, unassigned) [Example 7B, rel-3-chloro-4-[(3-chloro-5-fluoropyridin-2-yl)methoxy]-2′-[3-(2-hydroxypropan-2-yl)-2-oxopyridin-1-yl]-5′,6-dimethyl-[1,4′-bipyridin]-2-one] | > 1000 nM | > 316000 nM | –
14 | Cc1cnc(-n2cccc(C3CCOCC3)c2=O)cc1-n1c(C)cc(OCc2ncc(F)cc2F)c(Cl)c1=O (single isomer, unassigned) [Example 8A, rel-3-chloro-4-[(3,5-difluoropyridin-2-yl)methoxy]-5′,6-dimethyl-2′-[3-(oxan-4-yl)-2-oxopyridin-1-yl]-[1,4′-bipyridin]-2-one] | 0.794 nM | 2510 nM | –
15 | Cc1cnc(-n2cccc(C3CCOCC3)c2=O)cc1-n1c(C)cc(OCc2ncc(F)cc2F)c(Cl)c1=O (single isomer, unassigned) [Example 8B, rel-3-chloro-4-[(3,5-difluoropyridin-2-yl)methoxy]-5′,6-dimethyl-2′-[3-(oxan-4-yl)-2-oxopyridin-1-yl]-[1,4′-bipyridin]-2-one] | > 1000 nM | > 316000 nM | –
16 | Cc1cnc(-n2nccc(C(C)(C)O)c2=O)cc1-n1c(C)cc(OCc2ncc(F)cc2F)c(Cl)c1=O (single isomer, unassigned) [Example 9A, rel-3-chloro-4-[(3,5-difluoropyridin-2-yl)methoxy]-2′-[5-(2-hydroxypropan-2-yl)-6-oxopyridazin-1-yl]-5′,6-dimethyl-[1,4′-bipyridin]-2-one] | 12.6 nM | 2000 nM | –
17 | Cc1cnc(-n2cc(C(C)(C)O)ccc2=O)cc1-n1c(C)cc(OCc2ncc(F)cc2F)c(Cl)c1=O (single isomer, unassigned) [Example 13B, rel-3-chloro-4-[(3,5-difluoropyridin-2-yl)methoxy]-2′-[5-(2-hydroxypropan-2-yl)-2-oxopyridin-1-yl]-5′,6-dimethyl-[1,4′-bipyridin]-2-one] | – | 15800 nM | –
